Results on eight compounds are retold here after PMC6332040, “Synthesis, Density Functional Theory (DFT), Urease Inhibition and Antimicrobial Activities of 5-Aryl Thiophenes Bearing Sulphonylacetamide Moieties” (Molecules, 2015).

The term melting point denotes the temperature of the solid-liquid transition. Broadly, the IC50 is the concentration that gives 50% inhibition.

For one series, the target named is Jack bean urease enzyme (Canavalia ensiformis, UniProt P07374). Description: biochemical. Format: biochemical. Conditions: pH 6.8. The procedure:
Urease is an enzyme which converts urea to ammonium carbonate and is used as a diagnostic tool to establish the presence of different pathogens in the urinary and gastrointestinal tract. The percentage activity values of urease enzyme of compounds 4a–d were measured at 50 µg/mL and 250 µg/mL (Table 5), whereas, for compounds 4e–g, the percentage activity values of urease enzyme were measured at 15, 40 and 80 µg/mL, respectively (Table 6).
Jack bean urease enzyme (25 µL) was added in buffer solution (55 µL) containing 100 mM urea to prepare the stock solution. This mixture was then incubated with 5 µL (0.5 mM concentration) of the newly synthesized compounds for 15 min at 30 °C in 96-well plates. Anti-urease activity was resolved by knowing the production of ammonia using the indophenol method. Concisely, in each well, phenol reagent (45 µL, 0.005% w/v sodium nitroprusside and 1% w/v phenol) was added in addition to the alkali reagent (70 µL, NaOH 0.5% w/v and 0.1% NaOCl). After 50 min, the increase in absorbance was measured at 630 nm using a micro plate reader. All reactions were carried out in triplicate to obtained 200 µL final volume. The Softmax pro software was used to obtain the results as change in absorbance per minute. All assays were carried out at a specific pH of 6.8. The following formula was used to calculate the % inhibition: 100 − (OD test well/OD control) × 100(3)
Thiourea was used as standard inhibitor of urease. The EZ-fit kinetic data base was used to determine IC50 values. In the case of colored compounds, sample blanks were also prepared. Absorbance of sample blanks was subtracted from the absorbance of samples to get the corrected absorbance of the samples. Corrected absorbance of sample was used to calculate % age inhibition.

Where [1] appears, read: IC50, urease, Table 5 series (4a–d).
The mark [2] stands for this setting: IC50, urease, Table 6 series (4e–g).

“And” between values parts separate entries of the source, which are not always exact repeats. Equal entries are not always repeated.

Jack bean urease enzyme, sequence (P07374 whole entry, looked up): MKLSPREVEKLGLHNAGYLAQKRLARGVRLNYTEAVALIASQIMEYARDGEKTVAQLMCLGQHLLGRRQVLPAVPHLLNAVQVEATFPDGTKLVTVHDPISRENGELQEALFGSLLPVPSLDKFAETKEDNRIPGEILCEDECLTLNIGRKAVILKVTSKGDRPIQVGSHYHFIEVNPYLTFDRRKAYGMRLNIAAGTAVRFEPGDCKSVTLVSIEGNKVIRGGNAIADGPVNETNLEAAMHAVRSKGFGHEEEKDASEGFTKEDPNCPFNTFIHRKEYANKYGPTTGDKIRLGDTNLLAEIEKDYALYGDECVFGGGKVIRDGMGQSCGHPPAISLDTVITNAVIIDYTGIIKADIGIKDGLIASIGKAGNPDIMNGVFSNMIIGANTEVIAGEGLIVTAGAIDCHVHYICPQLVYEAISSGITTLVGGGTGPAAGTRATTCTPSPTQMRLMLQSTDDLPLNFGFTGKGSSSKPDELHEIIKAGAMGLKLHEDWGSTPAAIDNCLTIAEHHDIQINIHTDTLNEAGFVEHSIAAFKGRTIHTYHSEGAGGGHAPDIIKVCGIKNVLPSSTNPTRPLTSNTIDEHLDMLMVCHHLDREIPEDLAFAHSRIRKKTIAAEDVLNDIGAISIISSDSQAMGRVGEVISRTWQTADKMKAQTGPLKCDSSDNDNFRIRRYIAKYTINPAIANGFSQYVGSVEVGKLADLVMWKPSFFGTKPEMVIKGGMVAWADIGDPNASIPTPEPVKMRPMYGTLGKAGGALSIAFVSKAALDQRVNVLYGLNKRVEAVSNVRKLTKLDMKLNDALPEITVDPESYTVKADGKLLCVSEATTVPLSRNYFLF

In turn, `CC(=O)NS(=O)(=O)c1ccc(-c2ccccc2)s1` [Compound 4a] gave a melting point of 158 to 160 °C. Further, the IC50 against Jack bean urease enzyme (setting [1]) is ~136 µM and 136 µM. Further, at Jack bean urease enzyme (urease inhibition at 50 µg/mL), the Percent urease inhibition amounted to 67.56 ± 0.007%. Further, the Percent urease inhibition at Jack bean urease enzyme (urease inhibition at 250 µg/mL) stood at 89 ± 0.01%.

In the case of `CC(=O)NS(=O)(=O)c1ccc(-c2cc(C(F)(F)F)cc(C(F)(F)F)c2)s1` [Compound 4b, N-((5-(3,5-Bis(trifluoromethyl)phenyl)thiophen-2-yl)sulfonyl)acetamide], the melting point was found to be 168 °C. Further, at Jack bean urease enzyme (setting [1]), the IC50 is ~197 µM and 197 µM. Moreover, at Jack bean urease enzyme (urease inhibition at 50 µg/mL), the Percent urease inhibition was 29.98 ± 0.034%. The same compound had a Percent urease inhibition on Jack bean urease enzyme (urease inhibition at 250 µg/mL) of 56 ± 0.006%.

In turn, `CC(=O)NS(=O)(=O)c1ccc(-c2ccc(Cl)c(Cl)c2)s1` [Compound 4c] had a melting point of 148 to 150 °C. Besides, the IC50 against Jack bean urease enzyme (setting [1]) is ~121 µM and 121 µM. In addition, at Jack bean urease enzyme (urease inhibition at 50 µg/mL), the Percent urease inhibition is given as 54.4 ± 0.002%. This compound yielded a Percent urease inhibition on Jack bean urease enzyme (urease inhibition at 250 µg/mL) of 78 ± 0.003%.

`CC(=O)NS(=O)(=O)c1ccc(-c2ccc(C)cc2)s1` [Compound 4d] yielded a melting point of 161 to 163 °C. The compound further gave an IC50 against Jack bean urease enzyme (setting [1]) of 738 µM. This compound displayed a Percent urease inhibition at Jack bean urease enzyme (urease inhibition at 50 µg/mL) of 13.34 ± 0.007%. Besides, the Percent urease inhibition at Jack bean urease enzyme (urease inhibition at 250 µg/mL) was found to be 54 ± 0.004%.

`CC(=O)NS(=O)(=O)c1ccc(-c2cc(C)cc(C)c2)s1` [Compound 4e] displayed a melting point of 148 to 149 °C. On Jack bean urease enzyme (setting [2]), this compound gave an IC50 of 57.9 µM. Also, the Percent urease inhibition at Jack bean urease enzyme (urease inhibition at 15 µg/mL) came out at 44.59 ± 0.14%. Also, the Percent urease inhibition at Jack bean urease enzyme (urease inhibition at 40 µg/mL) is on record as 91.21 ± 0.81%. At Jack bean urease enzyme (urease inhibition at 80 µg/mL), this compound had a Percent urease inhibition of 92.88 ± 0.14%.

With `CC(=O)NS(=O)(=O)c1ccc(-c2ccc(C)s2)s1` [Compound 4f], the melting point was 167 to 168.4 °C. Moreover, the IC50 at Jack bean urease enzyme (setting [2]) was ~56.7 µM and 56.7 µM. In addition, on Jack bean urease enzyme (urease inhibition at 15 µg/mL), the Percent urease inhibition is given as 42.44 ± 0.11%. This compound also gave a Percent urease inhibition on Jack bean urease enzyme (urease inhibition at 40 µg/mL) of 92.12 ± 0.21%. The compound also had a Percent urease inhibition at Jack bean urease enzyme (urease inhibition at 80 µg/mL) of 94.66 ± 0.11%.

`CC(=O)NS(=O)(=O)c1ccc(-c2ccc(Cl)cc2)s1` [Compound 4g]: the melting point lay in the range of 167 to 170 °C. This compound also showed an IC50 against Jack bean urease enzyme (setting [2]) of 73.8 µM. For the same compound, the Percent urease inhibition at Jack bean urease enzyme (urease inhibition at 15 µg/mL) is listed as 46.23 ± 0.11%. In addition, the Percent urease inhibition at Jack bean urease enzyme (urease inhibition at 40 µg/mL) is recorded as 90.97 ± 0.18%. Further, the Percent urease inhibition on Jack bean urease enzyme (urease inhibition at 80 µg/mL) turned out to be 68 ± 0.02%.

Turning to `NC(N)=S` [Standard, Thiourea, reference compound], the Percent urease inhibition on Jack bean urease enzyme (urease inhibition at 15 µg/mL) turned out to be 47.1 ± 0.31%; at Jack bean urease enzyme (urease inhibition at 40 µg/mL) it was 65 ± 0.01%; at Jack bean urease enzyme (urease inhibition at 50 µg/mL), 60 ± 0.032%; at Jack bean urease enzyme (urease inhibition at 250 µg/mL) it was 95 ± 0.09%. Further, the IC50 against Jack bean urease enzyme (urease, Table 5 series (4a–d)) is 43 ± 0.38 µg/mL; at Jack bean urease enzyme (urease, Table 6 series (4e–g)) it was 23.3 µg/mL.
